Consider 39 compounds from US20230339937A1, “CONDENSED RING COMPOUNDS THAT INHIBIT H-PGDS” (SATO PHARMACEUTICAL CO., LTD., priority 2020, published 2023).

This assay has as its target T1, Recombinant human H-PGDS (Homo sapiens, UniProt O60760).
T1 construct: made in house; host or cells: E. coli
Kind of assay: H-PGDS inhibitory activity (prostaglandin D2 production from prostaglandin H2, measured by LC-MS/MS). The class given is biochemical. The following applies: recombinant human H-PGDS 1.0 nM expressed in E. coli; prostaglandin H2 25 μM; preincubated 15 minutes on ice, reacted on ice for 1 minute; concentration that inhibits prostaglandin D2 production by 50%. Put shortly: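 PGD2 formed from 25 µM prostaglandin H2 during a 1-min on-ice reaction was measured by LC-MS/MS after an FeCl2/citric acid stop. The enzyme was 1.0 nM E. coli-expressed human H-PGDS in Tris-HCl pH 8.0 buffer with MgCl2, reduced glutathione and γ-globulin, preincubated with compound for 15 min on ice. Production was normalised to DMSO controls minus the no-enzyme background.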

pIC50: −log10 of the molar value.

T1 sequence (O60760 whole entry): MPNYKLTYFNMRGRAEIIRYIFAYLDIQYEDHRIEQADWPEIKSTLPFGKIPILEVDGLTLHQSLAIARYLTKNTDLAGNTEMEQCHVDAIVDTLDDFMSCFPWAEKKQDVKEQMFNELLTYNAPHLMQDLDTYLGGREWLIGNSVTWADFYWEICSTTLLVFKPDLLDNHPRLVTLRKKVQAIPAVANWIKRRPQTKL

Turning to `O=C(NC1CCN(c2ncccc2F)CC1)c1ccc(-c2nccc3occc23)cc1` [Example 144, N-[1-(3-fluoropyridin-2-yl)piperidin-4-yl]-4-(furo[3,2-c]pyridin-4-yl)benzamide], the pIC50 was 8.82.
The result for `Cn1ccnc1N1CCC(NC(=O)c2ccc(-c3nccc4occc34)cc2)CC1` [Example 251, 4-(furo[3,2-c]pyridin-4-yl)-N-[1-(1-methyl-1H-imidazol-2-yl)piperidin-4-yl]benzamide] reads 8.70; that for `CC(C)(O)[C@H]1CC[C@H](NC(=O)c2ccc(-c3nccc4occc34)c(Cl)c2)CC1` [Example 131, 3-chloro-4-(furo[3,2-c]pyridin-4-yl)-N-[trans-4-(2-hydroxypropan-2-yl)cyclohexyl]benzamide], 7.59.
The result for `CC(C)(O)[C@H]1CC[C@H](NC(=O)c2ccc(-c3nccc4[nH]ccc34)c(F)c2)CC1` [Example 340, 3-fluoro-N-[trans-4-(2-hydroxypropan-2-yl)cyclohexyl]-4-(1H-pyrrolo[3,2-c]pyridin-4-yl)benzamide] reads 9.00; that for `O=C(NC1CCC(N2CCC(F)(F)CC2)CC1)c1ccc(-c2nccc3occc23)cc1` (stereo not drawn) [Example 307, N-[4-(4,4-difluoropiperidin-1-yl)cyclohexyl]-4-(furo[3,2-c]pyridin-4-yl)benzamide], 8.66.
In the case of `O=C(NCc1ccccc1)c1ccc(-c2nccc3[nH]ccc23)cc1` [Example 8, N-benzyl-4-(1H-pyrrolo[3,2-c]pyridin-4-yl)benzamide] it was 9.00.
In the case of `O=C(NC1CCN(c2cccnn2)CC1)c1ccc(-c2nccc3occc23)cc1` [Example 190, 4-(furo[3,2-c]pyridin-4-yl)-N-[1-(pyridazin-3-yl)piperidin-4-yl]benzamide], the pIC50 was 9.12.
Regarding `O=C(N[C@@H]1CC[C@H](O)C1)c1ccc(-c2nccc3occc23)cc1` (relative stereo) [Example 267, 4-(furo[3,2-c]pyridin-4-yl)-N-(cis-3-hydroxycyclopenthyl)benzamide], the pIC50 is 8.51.
For `COC(=O)c1ccnc(N2CCC(NC(=O)c3ccc(-c4nccc5occc45)cc3)CC2)n1` [Example 167, Methyl 2-{4-[4-(furo[3,2-c]pyridin-4-yl)benzamide]piperidin-1-yl}pyrimidine-4-carboxylate], the pIC50 is 8.92.
For `CC(=O)N[C@H]1CC[C@H](NC(=O)c2ccc(-c3nccc4occc34)cc2)CC1` [Example 296, N-(trans-4-acetamidocyclohexyl)-4-(furo[3,2-c]pyridin-4-yl)benzamide], the pIC50 is 8.54.
On to `Cn1cncc1CNC(=O)c1ccc(-c2nccc3[nH]ccc23)cc1` [Example 41, N-[(1-methyl-1H-imidazol-5-yl)methyl]-4-(1H-pyrrolo[3,2-c]pyridin-4-yl)benzamide], for which the pIC50 was 9.20.
The result for `CO[C@@H]1CN(c2ncc(CO)cn2)C[C@H]1NC(=O)c1ccc(-c2nccc3occc23)cc1` [Example 205, 4-(furo[3,2-c]pyridin-4-yl)-N-((3R,4R)-1-[5-(hydroxymethyl)pyrimidin-2-yl]-4-methoxypyrrolidin-3-yl)benzamide] reads 8.25; that for `Cc1cc2occc2c(-c2ccc(C(=O)N[C@H]3CC[C@H](C(C)(C)O)CC3)cc2)n1` [Example 127, N-[trans-4-(2-hydroxypropan-2-yl)cyclohexyl]-4-(6-methylfuro[3,2-c]pyridin-4-yl)benzamide], 8.80.
Turning to `Cc1nnnn1[C@H]1CC[C@H](NC(=O)c2ccc(-c3nccc4occc34)cc2)CC1` [Example 297, 4-(furo[3,2-c]pyridin-4-yl)-N-[trans-4-(5-methyl-1H-tetrazol-1-yl)cyclohexyl]benzamide], the pIC50 was 8.72.
In the case of `O=C(NC1CCN(c2ccc(CO)cn2)CC1)c1ccc(-c2nccc3occc23)cc1` [Example 169, 4-(furo[3,2-c]pyridin-4-yl)-N-{1-[5-(hydroxymethyl)pyridin-2-yl]piperidin-4-yl}benzamide] it was 8.52; in that of `O=C(NCC(O)CO)c1ccc(-c2nccc3[nH]ccc23)cc1` (stereo not drawn) [Example 34, N-(2,3-dihydroxypropyl)-4-(1H-pyrrolo[3,2-c]pyridin-4-yl)benzamide], 8.62; in that of `N#Cc1cnc(N2CC[C@H](NC(=O)c3ccc(-c4nccc5occc45)cc3)C2)nc1` [Example 201, (S)—N-[1-(5-cyanopyrimidin-2-yl)pyrrolidin-3-yl]-4-(furo[3,2-c]pyridin-4-yl)benzamide], 8.92.
The result for `Cc1ccnc(N2CCC(NC(=O)c3ccc(-c4nccc5occc45)cc3)CC2)n1` [Example 155, 4-(furo[3,2-c]pyridin-4-yl)-N-[1-(4-methylpyrimidin-2-yl)piperidin-4-yl]benzamide] reads 8.82; that for `O=C(NCCCCO)c1ccc(-c2nccc3occc23)cc1` [Example 96, 4-(furo[3,2-c]pyridin-4-yl)-N-(4-hydroxybutyl) benzamide], 7.77; that for `O=C(NCc1ccc(Cl)cc1)c1ccc(-c2nccc3occc23)cc1` [Example 70, N-(4-chlorobenzyl)-4-(furo[3,2-c]pyridin-4-yl)benzamide], 7.92.
The result for `CC(C)(O)[C@H]1CC[C@H](NC(=O)c2ccc(-c3nc(C#N)cc4occc34)cc2)CC1` [Example 317, 4-(6-cyanofuro[3,2-c]pyridin-4-yl)-N-[trans-4-(2-hydroxypropan-2-yl)cyclohexyl]benzamide] reads 7.29; that for `O=C(NCc1ccncc1)c1ccc(-c2nccc3occc23)cc1` [Example 72, 4-(furo[3,2-c]pyridin-4-yl)-N-(pyridin-4-ylmethyl) benzamide], 7.92; that for `CC(O)CNC(=O)c1ccc(-c2nccc3sccc23)cc1` (stereo not drawn) [Example 61, N-(2-hydroxypropyl)-4-(thieno[3,2-c]pyridin-4-yl)benzamide], 7.51.
Take `CCC(O)CNC(=O)c1ccc(-c2nccc3[nH]ccc23)cc1` (stereo not drawn) [Example 33, N-(2-hydroxybutyl)-4-(1H-pyrrolo[3,2-c]pyridin-4-yl)benzamide]: the pIC50 was 8.96.
In the case of `O=C(NCC1CCCCC1)c1ccc(-c2nccc3[nH]ccc23)cc1` [Example 19, N-(cyclohexyl-methyl)-4-(1H-pyrrolo[3,2-c]pyridin-4-yl)benzamide], the pIC50 is 9.00.
The result for `O=C(NC1CCN(c2ncc(CO)cn2)CC1)c1ccc(-c2nccc3occc23)cc1` [Example 160, 4-(furo[3,2-c]pyridin-4-yl)-N-{1-[5-(hydroxymethyl)pyrimidin-2-yl]piperidin-4-yl}benzamide] reads 8.68; that for `CC(C)(O)[C@H]1CC[C@H](NC(=O)c2ccc(-c3nc(Cl)cc4occc34)cc2)CC1` [Example 312, 4-(6-chlorofuro[3,2-c]pyridin-4-yl)-N-[trans-4-(2-hydroxypropan-2-yl)cyclohexyl]benzamide], 8.74; that for `O=C(Nc1ccccc1)c1ccc(-c2nccc3occc23)cc1` [Example 89, 4-(furo[3,2-c]pyridin-4-yl)-N-phenylbenzamide], 8.43.
As to `Cc1cc(CNC(=O)c2ccc(-c3nccc4[nH]ccc34)cc2)nn1C` [Example 38, N-[(1,5-dimethyl-1H-pyrazol-3-yl)methyl]-4-(1H-pyrrolo[3,2-c]pyridin-4-yl)benzamide], the negative logarithm of the IC50 (pIC50) was 8.89.
In the case of `C=Cc1cnc(-c2ccc(C(=O)N[C@H]3CC[C@H](C(C)(C)O)CC3)cc2)c2ccoc12` [Example 137, N-[trans-4-(2-hydroxypropan-2-yl)cyclohexyl]-4-(7-vinylfuro[3,2-c]pyridin-4-yl)benzamide] it was 7.92.
With `CC(C)(O)[C@H]1CC[C@H](NC(=O)c2ccc(-c3ncc(C#N)c4occc34)cc2)CC1` [Example 139, 4-(7-cyanofuro[3,2-c]pyridin-4-yl)-N-[trans-4-(2-hydroxypropan-2-yl)cyclohexyl]benzamide], the pIC50 was 6.60.
The result for `O=C(NCc1ccccc1)c1ccc(-c2nccc3occc23)cc1` [Example 67, N-benzyl-4-(furo[3,2-c]pyridin-4-yl)benzamide] reads 7.57.
Consider `O=C(NC1CCN(c2ccccc2)CC1)c1ccc(-c2nccc3occc23)cc1` [Example 115, 4-(furo[3,2-c]pyridin-4-yl)-N-(1-phenylpiperidin-4-yl)benzamide], for which the pIC50 is 8.96.
In the case of `Cc1cc2occc2c(-c2ccc(C(=O)NC34CCC(O)(CC3)CC4)cc2)n1` [Example 343, N-(4-hydroxybicyclo[2.2.2]octan-1-yl)-4-(6-methylfuro[3,2-c]pyridin-4-yl)benzamide] it was 8.92; in that of `C=Cc1cc2occc2c(-c2ccc(C(=O)N[C@H]3CC[C@H](C(C)(C)O)CC3)cc2)n1` [Example 313, N-[trans-4-(2-hydroxypropan-2-yl)cyclohexyl]-4-(6-vinylfuro[3,2-c]pyridin-4-yl)benzamide], 6.77; in that of `O=C(NCc1ccccc1CO)c1ccc(-c2nccc3occc23)cc1` [Example 65, 4-(furo[3,2-c]pyridin-4-yl)-N-[2-(hydroxymethyl)benzyl]benzamide], 8.05.
In the case of `O=C(N[C@H]1CC[C@H](NCC(F)F)CC1)c1ccc(-c2nccc3occc23)cc1` [Example 294, N-{trans-4-[(2,2-difluoroethyl)amino]cyclohexyl}-4-(furo[3,2-c]pyridin-4-yl)benzamide] it was 8.96; in that of `Cn1nnc(N2CCC(NC(=O)c3ccc(-c4nccc5occc45)cc3)CC2)n1` [Example 249, 4-(furo[3,2-c]pyridin-4-yl)-N-[1-(2-methyl-2 H-tetrazol-5-yl)piperidin-4-yl]benzamide], 8.80; in that of `O=C(NC12CC3CC(CC(O)(C3)C1)C2)c1ccc(-c2nccc3occc23)cc1` [Example 271, 4-(furo[3,2-c]pyridin-4-yl)-N-(3-hydroxyadamantan-1-yl)benzamide], 8.92.
